Test results as given in PubChem BioAssay (NCI).
Values joined by “and” are separate entries in the source; they are usually repeats but may differ in a detail not shown here. Equal entries are not always repeated.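 Dose response: 5 concentrations. Exposure: 48 h. Format: 96-well plates. Endpoint: linear interpolation; highest concentration if not reached. At the GI50, growth is halved. The concentration for full growth arrest is given as TGI.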

Assays:
Assay in all cases: DTP human tumour cell line panel, 48 h
[1] = test system: EKVX NSCLC
[2] = test system: HOP-62 NSCLC
[3] = test system: MOLT-4 leukemia
[4] = test system: SK-MEL-28 melanoma
[5] = test system: SR leukemia
[6] = test system: TK-10 renal
[7] = test system: MALME-3M melanoma
[8] = test system: SNB-75 CNS
[9] = test system: HCT-116 colon
[10] = test system: KM12 colon

Structure (SMILES) | GI50 [1] | TGI [1] | GI50 [2] | TGI [2] | GI50 [3] | TGI [3] | GI50 [4] | TGI [4] | GI50 [5] | TGI [5] | GI50 [6] | TGI [6] | GI50 [7] | TGI [7] | GI50 [8] | TGI [8] | GI50 [9] | TGI [9] | GI50 [10] [µM] | TGI [10]
O=C(Cc1ccc(Nc2ccnc(C(F)(F)F)c2)cc1)Nc1cc(Cl)ccc1O | 3.12 µM | 16.9 µM | 12.5 µM | 32.5 µM | 1.73 µM | 5.39 µM | 6.06 µM | 18.7 µM | 2.45 µM | 14.9 µM | 17.7 µM | 56 µM | 3.83 µM | 32.7 µM | 11.9 µM | 37.5 µM | 5.12 µM | 26.5 µM | 4.36 | 16.9 µM
O=C(c1ccco1)c1nc2cc(C(F)(F)F)ccc2[n+]([O-])c1C(F)(F)F | 34 µM | > 100 µM | 71.7 µM | > 100 µM | 90.3 µM | > 100 µM | 41.4 µM | > 100 µM | 41.4 µM | > 100 µM | 50.8 µM | > 100 µM | 33 µM | > 100 µM | 23 µM | 90.9 µM | 38.5 µM | > 100 µM | 17.4 | > 100 µM
Oc1ccc(Oc2cnc3cc(Cl)ccc3n2)cc1 | 13.2 µM | 74.4 µM | > 100 µM | > 100 µM | 14.6 µM | > 100 µM | 76 µM | > 100 µM | 22 µM | 68.4 µM | > 100 µM | > 100 µM | 34.7 µM | > 100 µM | 26 µM | > 100 µM | 37.1 µM | > 100 µM | 13.4 | > 100 µM
Cc1ccc2nc3c(n2c1)C(=O)C(=O)c1ccccc1-3 | 0.654 µM | 1.65 µM | 0.353 µM | 0.961 µM | 0.434 µM | 1.79 µM | 0.189 µM | 0.343 µM | 0.264 µM | 3.33 µM | 1.28 µM | 2.9 µM | 0.157 µM | 0.32 µM | 0.266 µM | 0.618 µM | 0.188 µM | 1.09 µM | 0.574 | 8.28 µM
Oc1ccc2ccccc2c1N=Nc1ccc(Cl)cc1 | – | > 100 µM | – | > 100 µM | – | > 100 µM | – | > 100 µM | – | > 100 µM | – | > 100 µM | – | > 100 µM | – | > 100 µM | – | > 100 µM | – | > 100 µM
O=C(Cn1c(C(=O)c2ccc(Cl)cc2)nc(-c2ccccc2)c1-c1ccccc1)c1ccc(Cl)cc1 | > 100 µM | > 100 µM | > 100 µM | > 100 µM | > 100 µM | > 100 µM | > 100 µM | > 100 µM | > 100 µM | > 100 µM | > 100 µM | > 100 µM | > 100 µM | > 100 µM | > 100 µM | > 100 µM | > 100 µM | > 100 µM | > 100 | > 100 µM
CCCC(C)c1c(Cl)nc(Cl)nc1Cl (stereo not given) | – | 36.9 µM | – | 20.6 µM | – | > 100 µM | – | 13.4 µM | – | > 100 µM | – | 37.4 µM | – | 55.6 µM | – | 27.5 µM | – | 3.66 µM | – | 10.2 µM
COc1ccc(C2=N[C@@H](c3ccc(Cl)cc3)[C@@H](c3ccc(Cl)cc3)N2C(=O)N2CCNC(=O)C2)c(OC(C)C)c1 | 10.3 µM and 12.1 µM and 12.9 µM | 24.1 µM and 25.2 µM and 27.3 µM | 16.5 µM and 15 µM and 16.1 µM | 31.1 µM and 30.5 µM and 33.3 µM | 7.54 µM and 3.5 µM and 2.74 µM | 28.4 µM and > 36.2 µM and 17.2 µM | 15.8 µM and 15.3 µM and 16.5 µM | 30.8 µM and 29.6 µM and 32.2 µM | 11.7 µM and 2.07 µM and 1.19 µM | 36.5 µM and 23.9 µM and 17 µM | 16.1 µM and 14.6 µM and 14.8 µM | 29.9 µM and 27.7 µM and 28 µM | 11.2 µM and 2.56 µM and 1.15 µM | 25.6 µM and 16.4 µM and 17.1 µM | 13.4 µM and 11.8 µM and 11.9 µM | 26.5 µM and 25.1 µM and 26.2 µM | 12.4 µM and 3.82 µM and 3.53 µM | 25.4 µM and 18.4 µM and 18.7 µM | 15.9 | 32 µM and 30 µM and 30.6 µM
COc1ccc2c(c1)[nH]c(=O)c1c3cc(OC)c(OC)cc3cn21 | 0.0312 µM | 18.9 µM | 0.0936 µM | 21 µM | < 0.0159 µM | 1.16 µM | < 0.01 µM | 18.2 µM | < 0.01 µM | 0.0961 µM | 0.386 µM | 17.3 µM | 16.6 µM | 44.1 µM | < 0.01 µM | 19.7 µM | < 0.01 µM | 1.19 µM | < 0.01 | 0.292 µM
COc1ccc(OC(C)C(=O)O)c2c1CCCC2=O (stereo not given) | – | > 100 µM | – | > 100 µM | – | > 100 µM | – | > 100 µM | – | > 100 µM | – | > 100 µM | – | > 100 µM | – | > 100 µM | – | > 100 µM | – | > 100 µM
OCC(O)COc1c(Cl)cc(Cl)cc1Cl (stereo not given) | – | > 100 µM | – | > 100 µM | – | > 31.6 µM | – | > 100 µM | – | > 100 µM | – | > 100 µM | – | > 100 µM | – | > 100 µM | – | > 100 µM | – | > 100 µM
C[C@@H](Oc1cc(-n2cnc3ccc(OCC4CCN(C)CC4)cc32)sc1C(N)=O)c1ccccc1Cl | 0.158 µM | 4.96 µM | 0.0977 µM | 3.55 µM | 0.0585 µM | 3.13 µM | 0.165 µM | 4.62 µM | 0.0448 µM | 0.697 µM | 0.583 µM | 5.13 µM | 2.93 µM | 6.95 µM | 0.0898 µM | 1.81 µM | 0.0617 µM | 3.05 µM | 0.0507 | 2.73 µM
COc1cc2cnc(-c3ccccc3)cc2cc1OC | – | 34.3 µM | – | > 100 µM | – | 50.7 µM | – | > 100 µM | – | 45.8 µM | – | 67.2 µM | – | 60.4 µM | – | > 100 µM | – | > 100 µM | – | 61.2 µM
Cc1ccc(/C=C/C(=O)c2ccc([N+](=O)[O-])cc2)cc1 | – | > 100 µM | – | > 100 µM | – | > 100 µM | – | > 100 µM | – | > 100 µM | – | > 100 µM | – | > 100 µM | – | > 100 µM | – | > 100 µM | – | > 100 µM
O=C1CCNC(=O)NC1 | – | > 100 µM | – | > 100 µM | – | 56.6 µM | – | > 100 µM | – | > 100 µM | – | > 100 µM | – | > 100 µM | – | > 100 µM | – | > 100 µM | – | > 100 µM
CNC(=O)c1cc(Oc2ccc3nc(N[C@@H]4CCCC[C@H]4O)sc3c2)ccn1 | 38.2 µM | > 100 µM | > 67.3 µM | > 100 µM | 32.8 µM | > 100 µM | 63.3 µM | > 100 µM | 40 µM | > 100 µM | > 100 µM | > 100 µM | 28.6 µM | 99.2 µM | 31.3 µM | > 100 µM | 49.1 µM | > 100 µM | 66.3 | > 100 µM
O=C(CCN1CCCC1)Nc1ccc2c(NCCc3ccccc3)c3ccccc3nc2c1 | 0.463 µM | 2.16 µM | 0.389 µM | 1.76 µM | 0.296 µM | 1.56 µM | 0.599 µM | 1.87 µM | 0.171 µM | 1.56 µM | 1.06 µM | 2.96 µM | 0.384 µM | 1.45 µM | 0.453 µM | 1.7 µM | 0.354 µM | 1.38 µM | 0.466 | 1.8 µM
